From article PMC5681660, “Reduced hepatitis B and D viral entry using clinically applied drugs as novel inhibitors of the bile acid transporter NTCP” (Scientific Reports, 2017)
Where a name gives a salt, the structure may show the parent alone. Read-outs that look alike come from different tables or passages of the source.

Experiments:
[1] = biological target: T1, human NTCP (Homo sapiens, UniProt Q14973); experiment: Screening fluorescent competitive Myrcludex B-FITC binding assay (96-well, 10 µM drug)
T1 sequence (Q14973 1-349): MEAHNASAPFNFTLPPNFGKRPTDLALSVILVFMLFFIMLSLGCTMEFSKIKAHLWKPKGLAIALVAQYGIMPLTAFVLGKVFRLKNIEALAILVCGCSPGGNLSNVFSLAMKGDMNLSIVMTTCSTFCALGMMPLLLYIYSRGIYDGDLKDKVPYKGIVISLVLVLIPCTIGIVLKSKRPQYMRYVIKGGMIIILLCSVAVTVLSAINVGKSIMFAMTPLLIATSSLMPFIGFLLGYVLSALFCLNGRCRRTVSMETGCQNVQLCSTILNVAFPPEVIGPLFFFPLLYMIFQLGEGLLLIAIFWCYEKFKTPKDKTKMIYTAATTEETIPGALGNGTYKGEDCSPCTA

[2] = biological target: T1, human NTCP; experiment: Screening taurocholate uptake assay (96-well, [14C]taurocholate, 10 µM drug)
[3] = Prestwick library screen, Myrcludex B-FITC binding, 10 µM drug
[4] = Prestwick library screen, taurocholate uptake, 10 µM drug
[5] = ranking score beside the functional and binding assay B-scores of the screen
[6] = screen, 10 µM drug, Myrcludex B-FITC binding
[7] = combined ranking from functional and binding screening assays
[8] = screen, 10 µM drug, taurocholate uptake
[9] = Prestwick library screen, 10 µM drug, B-score of Myrcludex B-FITC binding
[10] = Prestwick library screen, 10 µM drug, B-score of taurocholate uptake
[11] = combined ranking from functional and binding assay B-scores

Compound | B-score binding assay [1, 3] | B-score functional assay [2, 4] | Ranking score [2, 5] | B-score binding assay [1, 9] | B-score functional assay [2, 10] | Ranking score [2, 11] | other results
COC(=O)[C@H]1[C@H]2C[C@@H]3c4[nH]c5cc(OC)ccc5c4CCN3C[C@H]2C[C@@H](OC(=O)c2cc(OC)c(OC)c(OC)c2)[C@@H]1OC [Reserpine] | 0.147 | 0.519 | 842.122 | – | – | – | –
[H]/N=C(\N/C(=N/[H])Nc1ccc(Cl)cc1)NC(C)C [Proguanil hydrochloride] | – | – | – | – | – | – | B-score binding assay [1, 6]: -1.489; Ranking score [2, 7]: 309.176; B-score functional assay [2, 8]: -0.025
O=C(O)CNC(=O)C(CS)Cc1ccccc1 (stereo not drawn) [Thiorphan] | – | – | – | 2.652 | 0.09 | 959.982 | –
Cc1cc2c(s1)Nc1ccccc1N=C2N1CCN(C)CC1 [Olanzapine] | – | – | – | 2.253 | 0.458 | 1041.63 | –
CNCCC=C1c2ccccc2C=Cc2ccccc21 [Norcyclobenzaprine] | -0.001 | 0.855 | 807.009 | – | – | – | –
NC(=O)c1ncn([C@@H]2O[C@H](CO)[C@@H](O)[C@H]2O)n1 [Ribavirin] | -0.029 | 0.312 | 712.803 | – | – | – | –
O=C(CCCN1CC=C(n2c(=O)[nH]c3ccccc32)CC1)c1ccc(F)cc1 [Droperidol] | 0.092 | 0.035 | 713.526 | – | – | – | –
NS(=O)(=O)c1cc2c(cc1Cl)NC(C(Cl)Cl)NS2(=O)=O (stereo not drawn) [Trichlormethiazide] | – | – | – | 0.486 | 0.593 | 921.314 | –
O=C1CCc2cc(OCCCCc3nnnn3C3CCCCC3)ccc2N1 [Cilostazol] | – | – | – | – | – | – | B-score binding assay [1, 6]: -0.418; Ranking score [2, 7]: 446.637; B-score functional assay [2, 8]: -0.174
O=C(O)c1cccnc1 [Niacin] | 0.206 | 0.004 | 716.877 | – | – | – | –
CC(C)(Sc1cc(C(C)(C)C)c(O)c(C(C)(C)C)c1)Sc1cc(C(C)(C)C)c(O)c(C(C)(C)C)c1 [Probucol] | – | – | – | 3.305 | 0.089 | 969.367 | –
NS(=O)(=O)c1cc2c(cc1Cl)N=C(CSCc1ccccc1)NS2(=O)=O [Benzthiazide] | 0.39 | -0.047 | 714.84 | – | – | – | –
Cc1c(N(C)C)c(=O)n(-c2ccccc2)n1C [Amidopyrine] | – | – | – | – | – | – | B-score binding assay [1, 6]: -1.103; Ranking score [2, 7]: 343.366; B-score functional assay [2, 8]: -0.111
O=C(O)c1cc(=O)c2c(OCC(O)COc3cccc4oc(C(=O)O)cc(=O)c34)cccc2o1 [Cromolyn disodium salt] | – | – | – | 0.29 | 0.688 | 903.754 | –
CCCOc1ccc(C(=O)OCCN(CC)CC)cc1N [Proparacaine hydrochloride] | – | – | – | 1.832 | 0.236 | 984.211 | –
Deoxycorticosterone | – | – | – | – | – | – | B-score binding assay [1, 6]: -0.204; Ranking score [2, 7]: 460.68; B-score functional assay [2, 8]: -0.349
Cc1ccccc1N1C(=O)c2cc(S(N)(=O)=O)c(Cl)cc2NC1C (stereo not drawn) [Metolazone] | – | – | – | 1.32 | 0.67 | 1031.7 | –
C#C[C@]1(O)CC[C@H]2[C@@H]3CCC4=CCCC[C@@H]4[C@H]3CC[C@@]21C [Lynestrenol] | – | – | – | 0.007 | 2.662 | 897.58 | –

Compound | B-score binding assay [1, 3] | B-score functional assay [2, 4] | Ranking score [2, 5] | B-score binding assay [1, 9] | B-score functional assay [2, 10] | Ranking score [2, 11] | other results
Nc1c2c(nc3ccccc13)CCCC2 [Tacrine hydrochloride] | 0.755 | -0.044 | 757.813 | – | – | – | –
CCN(CC)CCNC(C(=O)OCCC(C)C)c1ccccc1.Cl.Cl (stereo not drawn) [Camylofine chlorhydrate] | – | – | – | 0.138 | 1.768 | 947.253 | –
COc1cc(OC)c(C(=O)CCCN2CCCC2)c(OC)c1.Cl [Buflomedil hydrochloride] | -0.086 | 2.687 | 823.499 | – | – | – | –
NS(=O)(=O)c1cc2c(cc1Cl)NC(CC1CCCC1)NS2(=O)=O (stereo not drawn) [Cyclopenthiazide] | 2.395 | -0.118 | 797.145 | – | – | – | –
COc1cccc(C2(O)CCCCC2CN(C)C)c1.Cl (stereo not drawn) [Tramadol hydrochloride] | – | – | – | – | – | – | B-score binding assay [1, 6]: -1.463; Ranking score [2, 7]: 410.66; B-score functional assay [2, 8]: 0.906
CC1(C)O[C@@H]2C[C@H]3[C@@H]4CCC5=CC(=O)C=C[C@]5(C)[C@H]4[C@@H](O)C[C@]3(C)[C@]2(C(=O)CO)O1 [Desonide] | 0.993 | -0.358 | 665.567 | – | – | – | –
CC[C@H]1OC(=O)[C@H](C)[C@@H](O[C@H]2C[C@@](C)(OC)[C@@H](O)[C@H](C)O2)[C@H](C)[C@@H](O[C@@H]2O[C@H](C)C[C@H](N(C)C)[C@H]2O)[C@](C)(O)C[C@@H](C)[C@@H]2N[C@@H](COCCOC)O[C@H]([C@H]2C)[C@]1(C)O [Dirithromycin] | – | – | – | 0.123 | 1.532 | 934.441 | –
C[C@]12COC(=O)C[C@@H]1CC[C@@H]1[C@@H]2CC[C@@]2(C)[C@H]1CC[C@]2(C)O [Oxandrolone] | – | – | – | – | – | – | B-score binding assay [1]: 1.484; B-score functional assay [2]: -0.501; Ranking score [2]: 649.785
C[N+](C)(CCOc1ccccc1)Cc1ccccc1.O=C([O-])c1cc2ccccc2cc1O [Bephenium hydroxynaphthoate] | – | – | – | – | – | – | B-score binding assay [1, 6]: -0.482; Ranking score [2, 7]: 452.073; B-score functional assay [2, 8]: -0.101
Cc1cn([C@H]2C=C[C@@H](CO)O2)c(=O)[nH]c1=O [Stavudine] | – | – | – | 0.431 | 0.865 | 957.909 | –
CCCCC(=O)O[C@H]1CC[C@H]2[C@@H]3CCc4cc(O)ccc4[C@H]3CC[C@]12C [Estradiol Valerate] | 1.969 | -0.153 | 776.511 | – | – | – | –
CCN(CC)CCNC(=O)c1ccc(N)cc1 [Procainamide hydrochloride] | -0.246 | 0.646 | 672.44 | – | – | – | –
C[C@@H](O)[C@H]1C(=O)N2C(C(=O)O)=C(S[C@@H]3CN[C@H](C(=O)N(C)C)C3)[C@H](C)[C@H]12 [Meropenem] | – | – | – | 0.55 | 0.4 | 900.139 | –
Cc1scc2c1N(C(=O)CN1CCN(C)CC1)c1ccccc1NC2=O [Telenzepine dihydrochloride] | – | – | – | 1.535 | 0.592 | 1037.8 | –
O=C(Oc1cccc2cccnc12)c1ccccc1 [Benzoxiquine] | – | – | – | – | – | – | B-score binding assay [1, 6]: -0.876; Ranking score [2, 7]: 381.13; B-score functional assay [2, 8]: -0.093
CC(C)(C)NC(=O)[C@H]1CC[C@H]2[C@@H]3CC[C@H]4NC(=O)C=C[C@]4(C)[C@H]3CC[C@]12C [Finasteride] | – | – | – | – | – | – | B-score binding assay [1, 6]: 0.768; Ranking score [2, 7]: 406.586; B-score functional assay [2, 8]: -1.623
COc1ccccc1Oc1c(NS(=O)(=O)c2ccc(C(C)(C)C)cc2)nc(-c2ncccn2)nc1OCCO [Bosentan] | 0.008 | 0.07 | 688.78 | – | – | – | –
NC[C@H]1O[C@H](O[C@H]2[C@H](O)[C@@H](O[C@H]3O[C@H](CO)[C@@H](O)[C@H](N)[C@H]3O)[C@H](N)C[C@@H]2N)[C@H](O)[C@@H](O)[C@@H]1O [Kanamycin A sulfate] | 1.616 | -0.456 | 673.457 | – | – | – | –
